Here are results for 18 molecules from patent US11407768B2, “AMPK activators” (Kallyope, Inc., priority 2020, dated 2022).

pEC50: −log10 of the molar value.

The term Papp A→B denotes the apparent permeability from the apical to the basolateral side of a cell layer. High values mean ready permeation, low ones poor permeation. A word on the bioavailability: it is dose-corrected exposure relative to a reference, in per cent. Usually pEC50 stands for the negative decadic logarithm of the EC50, by convention in mol/L. The Papp B→A is how fast a substance crosses the layer from the basolateral side. The efflux ratio is a quotient of directional permeabilities that is used to spot active efflux.

One data set can be described thus: in vitro. The following applies: human. How it is done: Caco-2 cells purchased from ATCC were seeded onto […] (PET) in 96-well BD Insert plates at 1×10^5 cells/cm^2, and refreshed medium every 4-5 days until to the 21st to 28th day for confluent cell monolayer formation. The transport buffer in the study was HBSS with 10 mM HEPES at pH 7.40±0.05. Test compounds were tested at 2 μM bi-directionally in duplicate. Digoxin was tested at 10 μM bi-directionally in duplicate, while nadolol and metoprolol were tested at 2 μM in A to B direction in duplicate. Final DMSO concentration was adjusted to less than 1%.
The plate was incubated for 2 hours in CO2 incubator at 37±1° C., with 5% CO2 at saturated humidity without shaking. All samples were mixed with acetonitrile containing internal standard and were centrifuged at 4000 rpm for 10 min. Subsequently, 100 μL supernatant solution was diluted with 100 μL distilled water for LC/MS/MS analysis. Concentrations of test and control compounds in starting solution, donor solution, and receiver solution were quantified by LC/MS/MS, using peak area ratio of analyte/internal standard.

Data set [1] in a line: Pharmacokinetics (oral bioavailability) in C57BL/6 mice. As to conditions: mouse, in vivo. The method, then:
Selected compounds were tested for pharmacokinetics in C57BL/6 mice. Compounds 1, 4, 31, 32, 40, 55, 57 and 60 were dosed IV at 1 mg/kg as a formulation of 0.2 mg/mL in 5% DMSO+30% PEG400+65% water and were dosed PO at 30 mg/kg as a formulation of 3 mg/mL in 0.25% MC+5% Tween 80+0.02% SDS. Compound 2 was dosed IV at 1 mg/kg as a formulation of 0.2 mg/mL in 5% ethanol +95% saline and was dosed PO at 30 mg/kg as a formulation of 3 mg/mL in 0.25% MC+5% Tween 80+0.02% SDS.

Data set [2] concerns the target Recombinant AMPK α1/β1/γ1 complex (Homo sapiens (Human), UniProt Q13131+Q9Y478). As to the kind of experiment: In vitro pAMPK1 kinase activation assay (ADP-Glo, SAMS peptide). The class given is biochemical. As to conditions: AMPK α1/β1/γ1 pre-activated with CAMKK2; 12-point curve; 15 min compound incubation. The method, then: Compound effect on AMPK enzyme activation was determined in a cell-free format with a 12-point concentration curve. The ADP-Glo detection system was used to determine phosphorylation of a SAMS peptide substrate. Recombinant AMPK α1/β1/γ1 complex was pre-activated by phosphorylation with CAMKK2 followed by incubated with compound for 15 minutes prior to the SAMS phosphorylation reaction. Activity curves and EC50 values were fitted by interpolation to an ATP:ADP standard curve as indicated by the ADP-Glo manufacturer using Prism software.
For orientation: ADP-Glo turns the ADP formed in a reaction into a luminescent signal.

Data set [3] deals with Chemotherapy-induced Intestinal Injury Model. As to the kind of experiment: Diarrhea in mouse chemotherapy-induced (5FU) intestinal injury model. It is filed as in vivo, BALB/c mice. The following applies: 30 mpk BID oral, 5FU 400 mg/kg IP; for Diarrhea Score Day 5 / Diarrhea Score Day 6: score 0-3. How it is done: Compounds were formulated in vehicle (0.25% methyl cellulose, 5% Tween 80, 0.02% sodium dodecyl sulfate (SDS) in Hanks' Buffered Salt Solution with Ca' and Mg'). On day 1, either saline or a 400 mg/kg dose of 5-fluorouracil (5FU) in saline was administered by intraperitoneal injection to BALB/c mice. Starting on day 2, vehicle or compound was administered twice a day by oral gavage. From days 5 to 6 post-5FU, the animals were scored for diarrhea severity once a day. The diarrhea was scored 0-3 as follows: 0—normal consistency (black and solid), 1—soft (black and a bit lighter/yellow), 2—loosely shaped stool (yellowish and somewhat watery), 3—extreme diarrhea (very watery).

The mark [4] stands for this setting: Caco-2, pH 7.4, Mean Recovery A to B.

Recombinant AMPK α1/β1/γ1 complex, sequence (Q13131 whole entry): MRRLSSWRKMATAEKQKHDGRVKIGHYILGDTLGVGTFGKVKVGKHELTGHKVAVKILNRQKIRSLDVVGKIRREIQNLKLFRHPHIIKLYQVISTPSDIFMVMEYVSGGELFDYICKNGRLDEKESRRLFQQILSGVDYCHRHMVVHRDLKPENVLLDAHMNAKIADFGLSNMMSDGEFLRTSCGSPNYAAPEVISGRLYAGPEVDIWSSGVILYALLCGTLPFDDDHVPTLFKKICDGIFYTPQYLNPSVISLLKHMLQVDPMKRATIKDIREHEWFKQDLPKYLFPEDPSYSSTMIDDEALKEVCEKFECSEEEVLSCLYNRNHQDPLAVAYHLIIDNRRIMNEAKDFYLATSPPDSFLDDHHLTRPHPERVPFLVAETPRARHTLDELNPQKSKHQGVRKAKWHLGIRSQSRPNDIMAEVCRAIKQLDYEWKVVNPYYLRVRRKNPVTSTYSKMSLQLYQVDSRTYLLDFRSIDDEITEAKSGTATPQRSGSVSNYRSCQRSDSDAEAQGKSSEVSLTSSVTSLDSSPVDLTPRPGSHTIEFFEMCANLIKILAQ
Recombinant AMPK α1/β1/γ1 complex, sequence (Q9Y478 whole entry): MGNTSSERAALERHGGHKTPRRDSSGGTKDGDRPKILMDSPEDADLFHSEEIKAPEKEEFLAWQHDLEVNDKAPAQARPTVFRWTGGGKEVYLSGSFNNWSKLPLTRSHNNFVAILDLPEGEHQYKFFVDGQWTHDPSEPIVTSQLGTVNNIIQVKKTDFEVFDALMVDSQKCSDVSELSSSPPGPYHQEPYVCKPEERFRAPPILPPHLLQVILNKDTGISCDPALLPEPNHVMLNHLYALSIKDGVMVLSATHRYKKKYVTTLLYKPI
Recombinant AMPK α1/β1/γ1 complex, sequence (P54619 whole entry partner): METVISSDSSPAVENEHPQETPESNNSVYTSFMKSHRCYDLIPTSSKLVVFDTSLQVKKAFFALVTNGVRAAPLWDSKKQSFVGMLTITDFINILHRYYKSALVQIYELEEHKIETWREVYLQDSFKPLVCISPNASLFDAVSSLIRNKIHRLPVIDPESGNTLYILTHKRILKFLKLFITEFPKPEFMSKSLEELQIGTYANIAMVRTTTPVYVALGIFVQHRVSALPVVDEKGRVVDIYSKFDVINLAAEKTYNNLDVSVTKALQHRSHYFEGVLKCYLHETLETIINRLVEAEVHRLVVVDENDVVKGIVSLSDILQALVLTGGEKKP

`COCCc1ccc(OCC(O)CNC(C)C)cc1` (stereo not drawn) [Metoprolol, metoprolol, reference compound] had a Papp A→B at 2 h, 2 μM in the data set “in vitro” (Caco-2, pH 7.4) of 16.4 ×10⁻⁶ cm/s. The same molecule gave a recovery at 2 h, 2 μM in the data set “in vitro” (setting [4]) of 90%.

In data set [1] (IV 1 mg/kg, PO 30 mg/kg), `OCC1CCN(Cc2ccc(-c3ccc(-c4cc5nc(O[C@@H]6CO[C@H]7[C@@H]6OC[C@H]7O)[nH]c5cc4Cl)cc3)cc2)CC1` [Compound 55, (3R,3aR,6R,6aR)-6-((6-chloro-5-(4′((4-(hydroxymethyl)piperidin-1-yl)methyl)-[1,1′-biphenyl]-4-yl)-1H-benzo[d]imidazol-2-yl)oxy)hexahydrofuro[3,2-b]furan-3-ol] returned a bioavailability of less than 15%. In addition, in data set [1] (following IV administration, 1 mg/kg, read-out: volume of distribution), the Vd was less than 5 L/kg. Moreover, in data set [2], the negative logarithm of the EC50 (pEC50) was 8.65.

As for `OCCN1CCN(Cc2ccc(-c3ccc(-c4cc5nc(O[C@@H]6CO[C@H]7[C@@H]6OC[C@H]7O)[nH]c5cc4Cl)cc3)cc2)CC1` [Compound 56], in data set [3], the “Diarrhea Score Day 5, % Change vs. Vehicle” value was −71%; the “Diarrhea Score Day 6, % Change vs. Vehicle” value was −77%; the “Diarrhea Score Day 5” value was determined as 0.38; the “Diarrhea Score Day 6” value is 0.25. The pEC50 in data set [2] is 9.03.

Take `OCCOCCNCc1ccc(-c2ccc(-c3cc4nc(O[C@@H]5CO[C@H]6[C@@H]5OC[C@H]6O)[nH]c4cc3Cl)cc2)cc1` [Compound 58, (3R,3aR,6R,6aR)-6-((6-chloro-5-(4′-(((2-(2-hydroxyethoxy)ethyl)amino)methyl)-[1,1′-biphenyl]-4-yl)-1H-benzo[d]imidazol-2-yl)oxy)hexahydrofuro[3,2-b]furan-3-ol]: in data set [3], the “Diarrhea Score Day 5, % Change vs. Vehicle” value is −81%; the “Diarrhea Score Day 6, % Change vs. Vehicle” value is −66%; the “Diarrhea Score Day 5” value worked out at 0.25; the “Diarrhea Score Day 6” value is 0.38. Moreover, the pEC50 in data set [2] is 9.03.

On to `O=C(NCCCS(=O)(=O)O)c1ccc(-c2ccc(-c3nc4nc(O[C@@H]5CO[C@H]6[C@@H]5OC[C@H]6O)[nH]c4cc3Cl)cc2)cc1` [Compound 6, 3-(4′-(6-chloro-2-(((3R,3aR,6R,6aR)-6-hydroxyhexahydrofuro[3,2-b]furan-3-yl)oxy)-1H-imidazo[4,5-b]pyridin-5-yl)-[1,1′-biphenyl]-4-carboxamido)propane-1-sulfonic acid], for which the pEC50 in data set [2] was 9.21.

In the case of `OCC(CO)(CO)NCc1ccc(-c2ccc(-c3nc4nc(O[C@@H]5CO[C@H]6[C@@H]5OC[C@H]6O)[nH]c4cc3Cl)cc2)cc1` [Compound 53, 2-(((4′-(6-chloro-2-(((3R,3aR,6R,6aR)-6-hydroxyhexahydrofuro[3,2-b]furan-3-yl)oxy)-1H-imidazo[4,5-b]pyridin-5-yl)-[1,1′-biphenyl]-4-yl)methyl)amino)-2-(hydroxymethyl)propane-1,3-diol], in data set [2], the pEC50 was 9.64.

Take `O[C@@H]1CO[C@H]2[C@@H]1OC[C@H]2Oc1nc2cc(-c3ccc(-c4ccc(CN5CCNCC5)cc4)cc3)c(Cl)cc2[nH]1` [Compound 49, (3R,3aR,6R,6aR)-6-((6-chloro-5-(4′-(piperazin-1-ylmethyl)-[1,1′-biphenyl]-4-yl)-1H-benzo[d]imidazol-2-yl)oxy)hexahydrofuro[3,2-b]furan-3-ol]: in data set [2], the pEC50 is 8.75.

Consider `CC(NC[C@H](O)[C@@H](O)[C@H](O)[C@H](O)CO)c1ccc(-c2ccc(-c3nc4nc(O[C@@H]5CO[C@H]6[C@@H]5OC[C@H]6O)[nH]c4cc3Cl)cc2)cc1` (stereo partly drawn) [Compound 73], for which, in data set [2], the pEC50 was 8.88.

With `O=P(O)(O)c1ccc(-c2ccc(-c3nc4nc(O[C@H]5CO[C@H](CO)[C@H]5O)[nH]c4cc3Cl)cc2)cc1` [Compound 45, (4′-(6-chloro-2-(((3S,4R,5R)-4-hydroxy-5-(hydroxymethyl)tetrahydrofuran-3-yl)oxy)-1H-imidazo[4,5-b]pyridin-5-yl)-[1,1′-biphenyl]-4-yl)phosphonic acid], the pEC50 in data set [2] was less than 5.00.

On to `OCC(CO)(CO)NCc1ccc(-c2ccc(-c3cc4nc(O[C@@H]5CO[C@H]6[C@@H]5OC[C@H]6O)[nH]c4cc3Cl)cc2)cc1` [Compound 36, 2-(((4′-(6-chloro-2-(((3R,3aR,6R,6aR)-6-hydroxyhexahydrofuro[3,2-b]furan-3-yl)oxy)-1H-benzo[d]imidazol-5-yl)-[1,1′-biphenyl]-4-yl)methyl)amino)-2-(hydroxymethyl)propane-1,3-diol], for which the pEC50 in data set [2] was 9.08.

`OCC1(CO)CN(Cc2ccc(-c3ccc(-c4nc5nc(O[C@@H]6CO[C@H]7[C@@H]6OC[C@H]7O)[nH]c5cc4Cl)cc3)cc2)C1` [Compound 52, (1-((4′-(6-chloro-2-(((3R,3aR,6R,6aR)-6-hydroxyhexahydrofuro[3,2-b]furan-3-yl)oxy)-1H-imidazo[4,5-b]pyridin-5-yl)-[1,1′-biphenyl]-4-yl)methyl)azetidine-3,3-diyl)dimethanol]: the pEC50 in data set [2] was 9.09.

`NCC1CN(Cc2ccc(-c3ccc(-c4cc5nc(O[C@@H]6CO[C@H]7[C@@H]6OC[C@H]7O)[nH]c5cc4Cl)cc3)cc2)C1` [Compound 67, (3R,3aR,6R,6aR)-6-((5-(4′-((3-(aminomethyl)azetidin-1-yl)methyl)-[1,1′-biphenyl]-4-yl)-6-chloro-1H-benzo[d]imidazol-2-yl)oxy)hexahydrofuro[3,2-b]furan-3-ol]: the pEC50 in data set [2] is 9.03.

In the data set “in vitro” (Caco-2, pH 7.4), `C[C@H]1O[C@@H](O[C@H]2[C@@H](O)C[C@H](O[C@H]3[C@@H](O)C[C@H](O[C@H]4CC[C@@]5(C)[C@H](CC[C@@H]6[C@@H]5C[C@@H](O)[C@]5(C)[C@@H](C7=CC(=O)OC7)CC[C@]65O)C4)O[C@@H]3C)O[C@@H]2C)C[C@H](O)[C@@H]1O` [Digoxin, reference compound] yielded a Papp A→B at 2 h, 2 μM of less than 0.03 ×10⁻⁶ cm/s and a Papp B→A at 2 h, 2 μM of 12.7 ×10⁻⁶ cm/s. Moreover, in the data set “in vitro” (Caco-2, pH 7.4, Efflux Ratio), the efflux ratio at 2 h, 2 μM was more than 438. The recovery at 2 h, 2 μM in “in vitro” (setting [4]) is less than 90.8%. In addition, the recovery at 2 h, 2 μM in “in vitro” (Caco-2, pH 7.4, Mean Recovery B to A) was 92.2%.

Take `O=C(NC[C@H](O)[C@@H](O)[C@H](O)[C@H](O)CO)c1ccc(-c2ccc(-c3cc4nc(O[C@@H]5CO[C@H]6[C@@H]5OC[C@H]6O)[nH]c4cc3Cl)cc2)cc1` [Compound 30, 4′-(6-chloro-2-(((3R,3aR,6R,6aR)-6-hydroxyhexahydrofuro[3,2-b]furan-3-yl)oxy)-1H-benzo[d]imidazol-5-yl)-N-((2S,3R,4R,5R)-2,3,4,5,6-pentahydroxyhexyl)-[1,1′-biphenyl]-4-carboxamide]: in data set [2], the pEC50 is 9.19.

For `O=C(CCCNCc1ccc(-c2ccc(-c3cc4nc(O[C@@H]5CO[C@H]6[C@@H]5OC[C@H]6O)[nH]c4cc3Cl)cc2)cc1)NCCO` [Compound 37, 4-(((4′-(6-chloro-2-(((3R,3aR,6R,6aR)-6-hydroxyhexahydrofuro[3,2-b]furan-3-yl)oxy)-1H-benzo[d]imidazol-5-yl)-[1,1′-biphenyl]-4-yl)methyl)amino)-N-(2-hydroxyethyl)butanamide], the pEC50 in data set [2] was 8.44.

For the molecule `CN(CCOCCO)S(=O)(=O)c1ccc(-c2ccc(-c3cc4nc(O[C@@H]5CO[C@H]6[C@@H]5OC[C@H]6O)[nH]c4cc3Cl)cc2)cc1` [Compound 72], the pEC50 in data set [2] is 8.86.

For the molecule `C[N+](C)(C)CCNC(=O)c1ccc(-c2ccc(-c3cc4nc(O[C@@H]5CO[C@H]6[C@@H]5OC[C@H]6O)[nH]c4cc3Cl)cc2)cc1` [Compound 29, 2-(4′-(6-chloro-2-(((3R,3aR,6R,6aR)-6-hydroxyhexahydrofuro[3,2-b]furan-3-yl)oxy)-1H-benzo [d]imidazol-5-yl)-[1,1′-biphenyl]-4-carboxamido)-N,N,N-trimethylethan-1-aminium bicarbonate], the pEC50 in data set [2] was 9.25.

For the molecule `OCCN1CCN(Cc2ccc(-c3ccc(-c4nc5nc(O[C@@H]6CO[C@H]7[C@@H]6OC[C@H]7O)[nH]c5cc4Cl)cc3)cc2)CC1` [Compound 51, (3R,3aR,6R,6aR)-6-((6-chloro-5-(4′-((4-(2-hydroxyethyl)piperazin-1-yl)methyl)-[1,1′-biphenyl]-4-yl)-1H-imidazo[4,5-b]pyridin-2-yl)oxy)hexahydrofuro[3,2-b]furan-3-ol], the pEC50 in data set [2] was 9.14.
